1 compound from patent US20140038950A1, “PLANT TREATMENT” (priority 2012, published 2014) can be followed below.

Structures are written as SMILES.

One data set concerns common dogwood diseases. Put plainly: Drench experiments on flowering dogwoods. The data set is classed as in vivo. The conditions noted are these: soil drench; compared with fluoxastrobin (personal experience). The source says: Evidence of how far you have to stray from my preferred formulation and application plan before the invention stops being useful (in other words, what are the boundaries of this invention). Not all strobilurins have xylem mobility only azoxystrobin and fluoxastrobin show this ability.

Data set [1] can be described thus: Direct trunk injection, phytotoxicity. The format is in vivo. Particulars: movement into xylem vessels. The source says:
For direct trunk injections, the azoxystrobin fungicide is compatible with the physiology of the plants. […] Other formulations such as fluoxastrobin are not advised for direct trunk injections.

Consider `CO/C=C(/C(=O)OC)c1ccccc1Oc1cc(Oc2ccccc2C#N)ncn1` [azoxystrobin], for which the “control of common dogwood diseases” value in the data set with common dogwood diseases was “excellent season long control”. Moreover, the phytotoxicity result in data set [1] was “without phytotoxicity”.
